Results on 2 compounds are retold here after publication PMC3102498 (Journal of neuro-oncology, 2010).

The nature of series [1]: Sorafenib plasma pharmacokinetics. In kind it is in vivo, human. The settings on record: for sorafenib exposure (AUC0–24) on day 28, patients on vs not on EIAEDs: day 28 of cycle 1, P = 0.0431; for AUC(0-t): AUC0–8 (mean).
The nature of series [2]: Phase 2 trial toxicity graded according to NCI CTC version 2.
The conditions of series [3]: cited from earlier work.
Series [4] can be described thus: Temozolomide exposure, continuous daily dosing compared to standard 5-day dosing. Format: in vivo, human. The settings on record: 50 mg/m2/day continuous compared to 150–200 mg/m2/day for 5 days each month.

Consider `CNC(=O)c1cc(Oc2ccc(NC(=O)Nc3ccc(Cl)c(C(F)(F)F)c3)cc2)ccn1` [Sorafenib], for which the “sorafenib exposure on day 1, patients on vs not on EIAEDs” value in series [1] (day 1 of cycle 1) is “comparable”. For the same compound, the entries for the “sorafenib exposure (AUC0–24) on day 28, patients on vs not on EIAEDs” value in series [1] and in series [1] (listed as sorafenib) were “significantly lower on day 28 for patients on EIAEDs” and “significantly higher on day 28 for patients not on EIAEDs”, respectively. The AUC(0-t) in series [1] (human, plasma, oral, 400 mg, patients not on EIAEDs, day 1, n = 5 per group) was found to be 11100 ng·h/mL; in series [1] (human, plasma, oral, 400 mg, patients not on EIAEDs, day 28, n = 5 per group) it was 52100 ng·h/mL. In series [1] (human, plasma, oral, 400 mg, AUC(24) (mean), Non-EIAED patients, day 28 of cycle 1, plasma), this compound showed an area under the curve (AUC) of 129000 ng·h/mL. In series [1] (human, plasma, oral, 400 mg, C max (mean), Non-EIAED patients, day 28 of cycle 1, plasma), the Cmax worked out at 8120 ng/mL. The “difference in mean AUC0–8, day 28 vs day 1” value in series [1] (patients not on EIAEDs) is on record as about 5 fold. Moreover, the “sorafenib AUC0–24 day 28 compared to day 1” value in series [1] (patients not on EIAEDs, P = 0.0117) is “significantly higher”; in series [1] (patients on EIAEDs, P = 0.7266) it was “did not differ significantly”. In addition, in series [2] (n = 32), the “Amylase/lipase, dose modification or discontinuation of sorafenib” value is listed as 4 (13) number of patients (percent of. Besides, in series [2] (n = 32), the “Palmer-Plantar Erythrodysesthesia, dose modification or discontinuation of sorafenib” value is given as 3 (9) number of patients (percent of. Besides, in series [3] (co-administration of rifampin, a CYP3A4 and UGT 1A9 inducer), the “reduction in sorafenib exposure” value is 37%. The “effect of ketoconazole co-administration on sorafenib” value in series [3] (ketoconazole (CYP3A inhibitor) with low-dose sorafenib 50 mg/day) is “did not result in unexpected adverse events or evidence of altered sorafenib pharmacokinetics”. Besides, in series [3] (phase I dose escalation study, malignant glioma patients, day one of cycle one), the “sorafenib exposures, patients on vs not on EIAEDs” value is listed as “comparable”. The “increase of sorafenib exposures over seven days (to steady-state)” value in series [3] (prior pharmacokinetic studies) is recorded as 3–4 fold.
As to `Cn1nnc2c(C(N)=O)ncn2c1=O` [temozolomide, Temozolomide], the “patients requiring dose modification or discontinuation of daily temozolomide” value in series [2] (32 patients) is reported as “none of the patients”. Also, the “greater temozolomide exposure with continuous daily dosing” value in series [4] was 1.4–1.9 fold.
